{
  "source": "patent US7235264B2",
  "about": "“Cerebral protection with a gas comprising xenon” (Air Liquide Deutschland GmbH, priority 2002, dated 2007)",
  "key": {"[1]": {"tested_on": "brain", "test": "administration of xenon (inhalation): cerebral perfusion and oxygen supply in the brain", "assay_type": "in vivo"}, "[2]": {"settings": "e.g. long-term ventilation, current state of knowledge, cited from earlier work"}},
  "note": "“Also recorded” adds a separate entry of the source.",
  "data": [
    {"compound": "[Xe]", "note": "[xenon]", "values": [
      {"measurement": "cerebral perfusion", "setting": "[1]; administered xenon, available results", "result": "improvement in cerebral perfusion"},
      {"measurement": "oxygen supply in the brain", "setting": "[1]; administration of xenon or xenon-containing gases, in particular by inhalation", "result": "increased; also recorded: improved"},
      {"measurement": "cerebral autoregulation", "setting": "[1]; preliminary results", "result": "maintained or improved"},
      {"measurement": "vasodilator action, especially capillary vasodilator in the capillary vascular system", "setting": "[1]; preliminary results", "result": "acts as vasodilator"},
      {"measurement": "side effects", "setting": "[2]; prolonged administration", "result": "no side effects"},
      {"measurement": "accumulation in the body", "setting": "[2]; use as medicament", "result": "no accumulation"},
      {"measurement": "metabolites formed in the body", "setting": "[2]; use as medicament", "result": "no metabolites are formed"}
    ]}
  ]
}
